Reference: PubChem BioAssay (NCI)
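Step 1: Grow cells in 96-well plates. Step 2: Expose to compound for 48 hours at 5 concentrations. Step 3: Interpolate endpoints linearly; if unreached, use highest concentration. Abbreviation: GI50, concentration required for 50% inhibition of growth. TGI: concentration producing complete growth inhibition.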

Tests used:
Test in all cases: DTP human tumour cell line panel, 48 h
[1] = system: HOP-62 NSCLC
[2] = system: KM12 colon
[3] = system: M14 melanoma
[4] = system: NCI-H460 lung
[5] = system: OVCAR-4 ovarian
[6] = system: SF-295 CNS
[7] = system: SF-539 CNS
[8] = system: SW-620 colon
[9] = system: HOP-92 NSCLC
[10] = system: NCI/ADR-RES ovarian

Compound | TGI [1] | TGI [2] | TGI [3] | TGI [4] | TGI [5] | TGI [6] | TGI [7] | TGI [8] | TGI [9] | GI50 [1] | GI50 [2] | GI50 [3] | GI50 [4] | GI50 [10] | TGI [10] | GI50 [5] | GI50 [6] | GI50 [7] | GI50 [8] | GI50 [9]
CN(CCCN1C(=O)c2cccc3cc([N+](=O)[O-])cc(c23)C1=O)CCN(C)CCCN1C(=O)c2cccc3cc([N+](=O)[O-])cc(c23)C1=O | > 39.3 µM | > 39.3 µM | > 39.3 µM | > 39.3 µM | > 39.3 µM | > 39.3 µM | > 39.3 µM | > 39.3 µM |  |  |  |  |  |  |  |  |  |  |  | 
O=[N+]([O-])c1ccc(C2SCc3nc4ccccc4n32)cc1 (stereo not given) | > 100 µM | > 100 µM |  | > 100 µM | > 100 µM | > 100 µM | > 100 µM | > 100 µM | 91.3 µM |  |  |  |  |  |  |  |  |  |  | 
C[C@]12CC(C=O)C(=O)C(O)=C1CC[C@@H]1C2CC[C@@]2(C)C1CC[C@]2(C)O (stereo not given in full) | > 100 µM | 74.6 µM | 35 µM | 87 µM | 34.8 µM | 66.6 µM | 35.1 µM | > 100 µM | 33.4 µM |  |  |  |  |  |  |  |  |  |  | 
Cc1cc(-c2nc3n(c2/C=N/N=C(N)N)CCS3)c(C)s1 | 31.3 µM | 21.2 µM | 32.9 µM | 35.7 µM | > 100 µM | 29 µM | 31.3 µM | 35 µM |  | 17.5 µM | 6.7 µM | 18.9 µM | 19.6 µM | 74.4 µM | > 100 µM | 36.2 µM | 15.6 µM | 16.8 µM | 18.5 µM | 
C=CCC(N[C@H](CO)c1ccccc1)c1ccccn1 (stereo not given in full) | > 100 µM | > 100 µM | > 100 µM |  | > 100 µM | > 100 µM | > 100 µM | > 100 µM |  | > 100 µM | > 100 µM | > 100 µM |  | > 100 µM | > 100 µM | > 100 µM | > 100 µM | > 100 µM | > 100 µM | 
COc1ccc2c(CCCc3ccc(Cl)cc3Cl)c3[n+](cc2c1OC)CCc1cc2c(cc1-3)OCO2 |  | 1.48 µM | 1.88 µM | 1.32 µM | 1.59 µM |  |  | 1.58 µM | 1.14 µM |  | 0.362 µM | 0.485 µM | 0.343 µM | 7.74 µM | 54.2 µM | 0.337 µM |  |  | 0.383 µM | 0.228 µM
COc1cc2c3cc1Oc1c(OC)c(OC)cc4c1[C@@H](Cc1ccc(O)c(c1)Oc1ccc(cc1)C[C@@H]3N(C)CC2)N(C)CC4 | 36 µM | 27.7 µM | 16.7 µM | 75.6 µM |  | 30.9 µM | 13.1 µM | 33.8 µM | 24.7 µM |  |  |  |  |  |  |  |  |  |  | 
O=C(NCCCl)Nc1ccccc1 | > 100 µM | > 100 µM |  | > 100 µM | > 100 µM | > 100 µM |  | > 100 µM | > 100 µM |  |  |  |  |  | > 100 µM |  |  |  |  | 
COC(=O)C(=O)C(C(C)=O)C(=O)NCc1ccccc1 (stereo not given) | > 100 µM | > 100 µM | > 100 µM | > 100 µM | > 100 µM | > 100 µM | > 100 µM | 19 µM | > 100 µM |  |  |  |  |  |  |  |  |  |  | 
CCCCCN(CCCCC)C(=O)[C@H](CCC(=O)O)NC(=O)c1cc2ccccc2[nH]1 | > 100 µM | > 100 µM | > 100 µM | > 100 µM | > 100 µM | > 100 µM | > 100 µM | > 100 µM | 99.4 µM |  |  |  |  |  |  |  |  |  |  | 
COC(=O)C12C34C=CC5(CCC6(C=CC1(CC3)O6)C52C(=O)OC)O4 (stereo not given) | > 100 µM | > 100 µM |  | > 100 µM | > 100 µM | > 100 µM | > 100 µM | > 100 µM | > 100 µM |  |  |  |  |  |  |  |  |  |  | 
CCC[CH2][Sn]([CH2]CCC)([O]C(=O)c1cc(F)ccc1F)[O]C(=O)c1cc(F)ccc1F | 4.04 µM | 3.28 µM | 2.81 µM | 3.56 µM | 2.95 µM | 3.17 µM | 2.81 µM | 1.91 µM | 2.52 µM | 2.39 µM | 1.6 µM | 1.47 µM | 1.85 µM |  |  | 1.58 µM | 1.77 µM | 1.4 µM | 0.619 µM | 1.26 µM
O=C(COC(=O)c1cccc2c(=O)c3ccccc3[nH]c12)Nc1ccc(Cl)cc1 | 78.5 µM | > 100 µM | > 100 µM | > 100 µM | > 100 µM | > 100 µM | > 100 µM | > 100 µM | > 100 µM |  |  |  |  |  |  |  |  |  |  | 
CCCCCCCCC(C)CCCCCCCCC(=O)OCC(COP(=O)([O-])OCC[N+](C)(C)C)OC(=O)CCCCCCCCC(C)CCCCCCCC (stereo not given) | > 100 µM | > 100 µM | > 100 µM | > 100 µM | > 100 µM | > 100 µM |  | > 100 µM | > 100 µM |  |  |  |  |  |  |  |  |  |  | 
C[C@]12Cc3conc3C(O)=C1CC[C@@H]1C2CC[C@@]2(C)C1CC[C@]2(C)O (stereo not given in full) | 64.2 µM | 64.9 µM | 36.2 µM | 36.3 µM | 44.4 µM | 74.3 µM | 60.6 µM | > 100 µM | 61.5 µM |  |  |  |  |  |  |  |  |  |  | 
Cc1ccc(C)c(NC(=O)C(=O)C2C(=O)N(c3ccccc3)N=C2N)c1 (stereo not given) | > 100 µM | > 100 µM | > 100 µM | > 100 µM | > 100 µM | > 100 µM | > 100 µM | > 100 µM | > 100 µM |  |  |  |  |  |  |  |  |  |  | 
O=C1NC2(CCCCC2)C2CCCCC=C12 (stereo not given) | > 100 µM | > 100 µM | > 100 µM | > 100 µM | > 100 µM | > 100 µM | > 100 µM | > 100 µM | > 100 µM |  |  |  |  |  |  |  |  |  |  | 
CCOC(=O)/C(C#N)=C\Sc1ccccc1 | 86.5 µM | > 100 µM | 35.6 µM | 83.1 µM | > 100 µM | 48.5 µM | 30.1 µM | 72.6 µM | > 100 µM |  |  |  |  |  |  |  |  |  |  | 
Cn1c2c(c3ccccc3c1=O)C(=O)c1ccccc1-2 | > 100 µM | > 100 µM | > 100 µM |  | > 100 µM | > 100 µM | 59.1 µM | > 100 µM | > 100 µM |  |  |  |  |  | > 100 µM |  |  |  |  | 
